Reference: paper PMC4154846, “Functional Characterization of Chemosensory Proteins in the Scarab Beetle, Holotrichia oblita Faldermann (Coleoptera: Scarabaeida)” (PLoS ONE, 2014)
Several values for one entry are separate records, joined by “and”; a condition that tells them apart may be missing. Identical values can stand only once. Entries after “also recorded” stand apart in the source; their conditions may differ. Like-named read-outs stand apart in the source and are kept apart here.

Key:
HoblCSP1 [1] = target: T1, HoblCSP1 (Holotrichia oblita, UniProt G9BWI4); test: Fluorescence competition assay with 1-NPN, recombinant HoblCSP1; format: binding; details: for binding affinity to HoblCSP1, in words: competition assay
T1 sequence (G9BWI4 entry or part of it): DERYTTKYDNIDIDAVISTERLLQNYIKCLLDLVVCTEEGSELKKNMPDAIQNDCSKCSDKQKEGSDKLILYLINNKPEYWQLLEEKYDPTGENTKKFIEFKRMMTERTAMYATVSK
Procedure: (§1) Fluorescence binding assay was based on method previously described by Yin et al.. Briefly, fifty compounds (Sigma-Aldrich, Germany) with chemical purities ≥97% were tested in a Lengguang 970 CRT spectrofluorimeter (Shanghai Jingmi, China). […] Binding data for each ligand was collected from 3 measurements.
(§2) Figure 3 Fluorescence competition assay of the recombinant HoblCSP1 and HoblCSP2. (A) Binding curves of 1-NPN with HoblCSP1 and HoblCSP2 and their relative Scatchard plots. […] (B) Representative competitive binding curves of the recombinant HoblCSP1 to a series selected ligands (see Table 1). All proteins used were diluted to a fixed concentration of 2 µM, while the concentration of 1-NPN varied with the respective dissociation constant of HoblCSPs/1-NPN. […] Fluorescence intensities are plotted as percent of the initial fluorescence in the absence of ligands. The molecular formulas of representative ligands are shown here as well.

HoblCSP2 [2] = target: T2, HoblCSP2 (Holotrichia oblita, UniProt G9BWQ6); test: Fluorescence competition assay with 1-NPN, recombinant HoblCSP2; format: binding; details: for binding affinity to HoblCSP2, in words: competition assay
T2 sequence (G9BWQ6 entry or part of it): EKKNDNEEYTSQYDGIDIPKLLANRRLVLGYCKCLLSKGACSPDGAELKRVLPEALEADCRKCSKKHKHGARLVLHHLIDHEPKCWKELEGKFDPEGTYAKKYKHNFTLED
Procedure: as §1, §2

H.oblita antennae = system: H.oblita antennae; design: method as in PMID 21852709; details: cited from earlier work
H.oblita = system: H.oblita; design: method as in earlier work; details: cited from earlier work
HoblCSP2 [3] = target: T2, HoblCSP2; test: Fluorescence binding of 1-NPN to HoblCSP2 (binding curve, Scatchard plot); details: 2 µM protein; 1-NPN 2∼24 µM; read-out: dissociation constant of CSP2/1-NPN
Procedure: (§3) Fluorescence binding assay was based on method previously described by Yin et al.. Briefly, fifty compounds (Sigma-Aldrich, Germany) with chemical purities ≥97% were tested in a Lengguang 970 CRT spectrofluorimeter (Shanghai Jingmi, China). Assuming the proteins were 100% active, the binding affinities for N-phenyl-1-naphthylamine (1-NPN) were determined by adding aliquots of 1-NPN into a 2 µM protein solution for final concentrations of 2∼24 µM. The dissociation constants of the binding competitors were calculated from IC50 according to Campanacci et al: Ki = [IC50]/(1+[1-NPN]/K(1-NPN)), where [1-NPN] represents the concentration of unbound 1-NPN and K(1-NPN) is the dissociation constant of 1-NPN [46]. Binding data for each ligand was collected from 3 measurements.
(§4) Figure 3 Fluorescence competition assay of the recombinant HoblCSP1 and HoblCSP2. (A) Binding curves of 1-NPN with HoblCSP1 and HoblCSP2 and their relative Scatchard plots. The dissociation constant of HoblCSP1 is 2.53 µM and that of HoblCSP2 is 2.93 µM. (B) Representative competitive binding curves of the recombinant HoblCSP1 to a series selected ligands (see Table 1). […] Fluorescence intensities are plotted as percent of the initial fluorescence in the absence of ligands. […]

HoblCSP1 [4] = target: T1, HoblCSP1; test: Fluorescence binding of 1-NPN to HoblCSP1 (binding curve, Scatchard plot); details: 2 µM protein; 1-NPN 2∼24 µM; read-out: dissociation constant of CSP1/1-NPN
Procedure: as §3, §4

AgamCSP3 = system: AgamCSP3; design: method as in PMID 23599217; details: cited from earlier work
[5] = competition with 1-NPN, 2 µM protein, ligand 0–28 µM, Ki calculated from IC50, 3 measurements, read-out: HoblCSP1 Ki
[6] = competition with 1-NPN, 2 µM protein, ligand 0–28 µM, Ki calculated from IC50, 3 measurements, read-out: HoblCSP2 Ki

Row | Compound | Ki (HoblCSP1 [1]) | binding affinity to HoblCSP1, in words (HoblCSP1 [1]) | binding affinity to HoblCSP2, in words (HoblCSP2 [2]) | Ki (HoblCSP1 [1]; [5]) | further results
1 | CCC/C=C/C=O [trans-2-hexenal] | 24.9 µM | medium affinities | medium affinities |  | Ki (HoblCSP2 [2]): 25.7 µM
2 | CCOC(=O)CN [Glycine ethyl ester] |  | limited affinities | limited affinities | 43.5 µM | Ki (HoblCSP2 [2]; [6]): 39.5 µM
3 | COc1ccccc1 [anisole] |  |  |  | 28.4 µM | Ki (HoblCSP2 [2]; [6]): 29.5 µM
4 | COC(=O)c1ccccc1O [methyl salicylate] | 47.3 µM | higher affinities |  |  | 
5 | O=Cc1ccccc1 [benzaldehyde] | 23.3 µM | medium affinities | medium affinities |  | Ki (HoblCSP2 [2]): 19.5 µM
6 | C=CCc1ccc(O)c(OC)c1 [eugenol] | 30 µM | higher affinities |  |  | 
7 | CC(=O)/C=C/C1C(C)=CCCC1(C)C (stereo not drawn) [α-ionone] | 10.5 µM | highest affinities | highest affinities |  | electrophysiological response in H.oblita antennae (EAG) (H.oblita antennae): strong electrophysiological responses; Ki (HoblCSP2 [2]): 11.5 µM
8 | COC(=O)[C@@H]1CCCN1 [L-Proline methyl ester] |  | limited affinities | limited affinities | 57 µM | 
9 | CCCCC(CC)CO (centres unmarked) [2-Ethy1-1-Hexanol] |  |  |  | 29.9 µM | Ki (HoblCSP2 [2]; [6]): 32.1 µM
10 | C=CC(=C)CCC=C(C)C [myrcene] |  | medium affinities | medium affinities | 25.4 µM | Ki (HoblCSP2 [2]; [6]): 29.5 µM
11 | COC(=O)c1ccccc1C(=O)OC [dimererhyl phthalate] |  | higher affinities |  | 22.3 µM | 
12 | C=CC(O)CCCCC (centres unmarked) [1-Octen-3-ol] |  |  |  | 48.1 µM | 
13 | O=C/C=C/c1ccccc1 [cinnamaldehyde] | 20.5 µM | highest affinities | highest affinities |  | attraction to H.oblita (H.oblita): great attraction; electrophysiological response in H.oblita antennae (EAG) (H.oblita antennae): strong electrophysiological responses; Ki (HoblCSP2 [2]): 17.5 µM
14 | CC/C=C\CCO [cis-3-hexen-1-ol] |  |  | higher affinities |  | Ki (HoblCSP1 [1]; read-out: HoblCSP1 Ki, competition with 1-NPN, 2 µM protein, ligand 0–28 µM, Ki calculated from IC50, 3 measurements): 46.9 µM; Ki (HoblCSP2 [2]; read-out: HoblCSP2 Ki, competition with 1-NPN, 2 µM protein, ligand 0–28 µM, Ki calculated from IC50, 3 measurements): 47.8 µM and 35.7 µM
15 | c1ccc(Nc2cccc3ccccc23)cc1 [1-NPN, N-phenyl-1-naphthylamine] |  |  |  |  | Kd (HoblCSP2 [3]): 2.93 µM; Kd (HoblCSP1 [4]): 2.53 µM
16 | CC1=C(/C=C/C(C)=C/C=C/C(C)=C/C=O)C(C)(C)CCC1 [retinal] |  |  |  |  | best ligands for AgamCSP3 (AgamCSP3): best ligands
17 | OCc1ccccc1 [benzyl alcohol] | 34.9 µM |  |  |  | Ki (HoblCSP2 [2]): 54.8 µM
18 | CC(C)(C)C1CCC(O)CC1 (centres unmarked) [4-tert-butylcyclohexanol] |  |  |  | 34.6 µM | Ki (HoblCSP2 [2]; [6]): 50.7 µM
19 | CC1=CC[C@@H](C(C)(C)O)CC1 [α -terpineol] |  |  |  | 46.8 µM | Ki (HoblCSP2 [2]; [6]): 39.4 µM
20 | CC(=O)/C=C/C1=C(C)CCCC1(C)C [β-ionone] | 4.3 µM | bound most strongly; also recorded: highest affinities; also recorded: best ligand | bound most strongly; also recorded: highest affinities |  | Ki (HoblCSP2 [2]): 4.47 µM
21 | CCCCCCO [hexanol] |  |  |  | 57.6 µM | Ki (HoblCSP2 [2]; [6]): 60.5 µM
22 | CC[C@H](C)[C@H](N)C(=O)OC [L-Isoleucine methyl este] |  | limited affinities | limited affinities |  | 
23 | CC(=O)CCC=C(C)C [6-Methyl-5-hepten-2-one] |  |  | higher affinities |  | Ki (HoblCSP2 [2]): 56.9 µM
24 | CCCCCCCCC=O [nonanal] |  |  |  |  | best ligands for AgamCSP3 (AgamCSP3): best ligands
25 | CC(C)=CCC/C(C)=C/CO [geraniol] | 29.5 µM | medium affinities | medium affinities |  | Ki (HoblCSP2 [2]): 30.2 µM
26 | C=C1C2CCC(C2)C1(C)C (centres unmarked) [camphene] |  | able to bind camphene, albeit with a high Ki value | could not bind camphene at all | 37.9 µM | 
27 | CC(C)=CCC[C@@H](C)CC=O [citronellal] |  |  |  |  | best ligands for AgamCSP3 (AgamCSP3): best ligands
28 | CCCCCCCCO [1-octanol] |  |  |  | 35.9 µM | Ki (HoblCSP2 [2]; [6]): 40.6 µM
